Among the data in patent US7169761B2, “Azulene derivatives and salts thereof” (Astellas Pharma Inc., priority 2002, dated 2007) are IC50 and Hypoglycemic activity values, retold here.

The target of one assay is T1, human SGLT2 (Homo sapiens, UniProt P31639).
T1 construct: expressed in transfected cells; host or cells: CHO-K1
T1 sequence (P31639 1-672): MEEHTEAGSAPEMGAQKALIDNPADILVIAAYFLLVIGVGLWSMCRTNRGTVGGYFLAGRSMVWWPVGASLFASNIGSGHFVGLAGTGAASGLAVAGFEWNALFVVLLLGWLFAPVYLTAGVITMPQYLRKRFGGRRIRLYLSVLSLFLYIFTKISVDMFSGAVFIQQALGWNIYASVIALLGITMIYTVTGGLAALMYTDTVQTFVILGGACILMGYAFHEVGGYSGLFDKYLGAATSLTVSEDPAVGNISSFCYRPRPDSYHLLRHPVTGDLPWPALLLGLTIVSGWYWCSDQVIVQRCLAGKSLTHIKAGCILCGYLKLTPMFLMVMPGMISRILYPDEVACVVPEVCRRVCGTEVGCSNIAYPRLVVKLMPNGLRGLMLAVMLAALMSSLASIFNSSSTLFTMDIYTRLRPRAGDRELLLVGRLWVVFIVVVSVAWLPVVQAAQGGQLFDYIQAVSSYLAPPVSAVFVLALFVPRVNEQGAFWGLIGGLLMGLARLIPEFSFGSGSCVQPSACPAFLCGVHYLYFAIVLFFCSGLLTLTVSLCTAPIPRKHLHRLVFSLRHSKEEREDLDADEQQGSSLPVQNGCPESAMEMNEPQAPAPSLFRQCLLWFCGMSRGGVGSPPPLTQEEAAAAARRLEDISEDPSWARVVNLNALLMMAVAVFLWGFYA
The assay can be described thus: Inhibition of human Na+-glucose cotransporter (human SGLT2) activity: methyl-α-D-glucopyranoside intake in CHO cells stably expressing human SGLT2. It counts as cell-based. To be noted: inhibition of methyl-α-D-(U-14C)glucopyranoside intake, CHO cells stably expressing human SGLT2, 37° C., two hours. An excerpt:
[Inhibition of Human Na^+-Glucose Cotransporter (Human SGLT2) Activity]
(1) Preparation of Human SGLT 2 Expression Vector
First, single-strand cDNA was reversely transcripted from total RNA originating from the human kidney (manufactured by BD Biosciences Clontech) using a Superscript II (manufactured by Invitrogen Corporation) and a random hexamer. Second, using the cDNA as a template, a DNA fragment encoding a human SGLT2 (Wells, R. G. et al., Am. J. Physiol., 1992, 263(3) F459) was amplified by the PCR reaction using Pyrobest DNA polymerase (manufactured by Takara Bio Inc.). That is, a Hind III site and an EcoRI site were inserted into the 5′ side and the 3′ side of the DNA fragment, respectively by using primers.
The amplified fragment was cloned into a pCR2.1-Topo vector using a Topo TA Cloning Kit (manufactured by Invitrogen Corporation) and the cloned vector was transfected into a competent cell of Escherichia coli JM109. Ampicillin-resistant clones were cultured in a LB medium containing ampicillin (100 mg/l). A plasmid was purified from the cultured Escherichia coli using the method of Hanahan (see Maniatis et al., “Molecular Cloning”). A DNA fragment for encoding a human SGLT2 was obtained by the Hind III/EcoRI digestion of the plasmid and ligated and cloned to the same site of the expression vector pcDNA 3.1 (manufactured by Invitrogen Corporation) using a DNA ligase (manufactured by Roche Diagnostics). The ligated clone was transfected into a competent cell of Escherichia coli JM109 in the same manner as described above and cultured in a LB medium containing ampicillin, and a human SGLT2 expression vector was obtained using the method of Hanahan.
(2) Preparation of Human SGLT2 Expressed Cells
The human SGLT2 expression vector was transfected into a CHO-K1 cell using Lipofectamine2000 (manufactured by Invitrogen Corporation). The cell was cultured in a Ham's F12 medium (manufactured by Nissui Pharmaceutical Co., Ltd.) containing penicillin (50 IU/ml, manufactured by Dainippon Pharmaceutical Co., Ltd.), streptomycin (50 μg/ml, manufactured by Dainippon Pharmaceutical Co., Ltd.), Geneticin (40 μg/ml, manufactured by Invitrogen Corporation), and 10% fetal bovine serum in the presence of 5% CO2 at 37° C. for two weeks, and Geneticin-resistant clones were obtained.
(3) Inhibition of Methyl-α-D-Glucopyranoside Intake
After removing the medium of a CHO cell which stably expresses the human SGLT2, a pretreatment buffer solution (buffer solution of pH 7.4 containing choline chloride (140 mM), potassium chloride (2 mM), calcium chloride (1 mM), magnesium chloride (1 mM), 2-[4-(2-hydroxyethyl)1-piperazinyl]ethanesulfonic acid (10 mM), and tris(hydroxymethyl) aminomethane (5 mM)) was added in the amount of 100 μl per well, and incubated at 37° C. for 20 minutes.
11 μl of methyl-α-D-(U-14C) glucopyranoside (manufactured by Amersham Pharmacia Biotech) was mixed with 1,000 μl of a buffer solution for intake containing a test compound (buffer solution of pH 7.4 containing sodium chloride (140 mM), potassium chloride (2 mM), calcium chloride (1 mM), magnesium chloride (1 mM), methyl-α-D-glucopyranoside (50 μM), 2-[4-(2-hydroxyethyl)1-piperazinyl]ethanesulfonic acid (10 mM), and tris(hydroxymethyl)aminomethane (5 mM)) to prepare a buffer solution for intake. A buffer solution for intake without a test compound was prepared for a control group. A buffer solution for basal intake without a test compound containing coline chloride (140 mM) instead of sodium chloride for measuring the basal intake was prepared as well.
After removing the pretreatment buffer solution, the buffer solution for intake was added (25 μl per well) and incubated at 37° C. for two hours. […]

In assay [1] the test system is blood glucose of KK-A^y mice. The assay can be described thus: Hypoglycemic activity confirmation test in fed KK-Ay mice. It counts as in vivo, mouse. The conditions noted are these: rate of decrease in blood glucose AUC 0–8 hours vs control group; fed male KK-A^y mice, oral, 3 mg/10 ml suspension at 10 ml/kg. The procedure: [Hypoglycemic Activity Confirmation Test]
Fed KK-A^y mice (CLEA Japan, Inc., male) were used. The test compound was suspended in 0.5% methylcellulose solution to a concentration of 3 mg/10 ml. The weight of each mouse was measured. The test compound suspension was orally administered forcibly to the mice at a dose of 10 ml/kg. Only 0.5% methylcellulose solution was administered to the mice of a control group. Each group consisted of six mice. Blood was collected from the tail vein immediately before administering the compound and one, two, four, and eight hours after administering the compound. The blood glucose value was measured using a glucose CII Test Wako (manufactured by Wako Pure Chemical Industries, Ltd.). The intensity of hypoglycemic activity was determined by calculating the area under the blood glucose value-time curve (AUC) using a trapezoidal method from the glucose value of 0–8 hours after administering the compound and calculating the rate (%) of the decrease in the AUC of the drug-administered group from that of the control group.

With `CCOc1ccc(Cc2cc3cccccc-3c2)cc1[C@@H]1O[C@H](CO)[C@@H](O)[C@H](O)[C@H]1O` [Example 7, (1S)-1,5-anhydro-1-[5-(azulen-2-ylmethyl)-2-ethoxyphenyl]-D-glucitol], at human SGLT2, the IC50 – broadly, the concentration at which inhibition is half-maximal – worked out at 16 nM.
Same read-out and setting: to `Cc1ccc(Cc2cc3cccccc-3c2)cc1[C@@H]1O[C@H](CO)[C@@H](O)[C@H](O)[C@H]1O` [Example 11] belongs 29 nM.
On the same count and under the same terms, to `OC[C@H]1O[C@@H](c2cccc(Cc3ccc4cccc-4cc3)c2)[C@H](O)[C@@H](O)[C@@H]1O` [Example 21] belongs 99 nM.
The same measure, in the same setting: to `OC[C@H]1O[C@@H](c2cccc(Cc3cc4cccccc-4c3)c2)[C@H](O)[C@@H](O)[C@@H]1O` [Example 25] belongs 22 nM.
`COc1ccc(Cc2cc3cccccc-3c2)cc1[C@@H]1O[C@H](CO)[C@@H](O)[C@H](O)[C@H]1O` [Example 28]: half-maximal inhibition at human SGLT2 (IC50) required 16 nM. Besides, in assay [1], the Hypoglycemic activity came out at 46%.
In the same order, the values of `COc1cc(OC)c([C@@H]2O[C@H](CO)[C@@H](O)[C@H](O)[C@H]2O)cc1Cc1cc2cccccc-2c1` [Example 60, (1S)-1,5-anhydro-1-[5-(azulen-2-ylmethyl)-2,4-dimethoxyphenyl]-D-glucitol] are 5.7 nM and 45%.
For the molecule `OC[C@H]1O[C@@H](c2cc(Cc3cc4cccccc-4c3)ccc2O)[C@H](O)[C@@H](O)[C@@H]1O` [Example 75, (1S)-1,5-anhydro-1-[5-(azulen-2-ylmethyl)-2-hydroxyphenyl]-D-glucitol], on human SGLT2, half-maximal inhibition (IC50) required 8.9 nM.
